Measured values from patent US6399637B1, “Crystal modification of torasemide” (PLIVA, farmaceutska, kemijska, prehrambena i kozmeticka …, priority 1998, dated 2002).

How the values were obtained:
Assay type in all cases: physicochemical
[1] = Dissolution test of torasemide in water (USP 23); settings: for % Dissolved torasemide: water, USP 23, 37° C., 50 rpm., 1000 ml
Description: (§1) The microcrystallinic modifications I, II and III of torasemide prepared according to Acta Crst. B34 (1978), 1304-1310 and Example 1 were subjected to dissolution testing in water, and in artificial intestinal juice, at 37° C.

[2] = Intrinsic Dissolution Rate in a model of artificial gastric juice
[3] = Dissolution test in artificial intestinal juice (USP 23)
Description: as §1

[4] = Stability of the crystal modification on storage and at increased humidity

% Dissolved torasemide ([1]; 0 minutes) | % Dissolved torasemide ([1]; 10 minutes) | % Dissolved torasemide ([1]; 20 minutes) | % Dissolved torasemide ([1]; 30 minutes) | % Dissolved torasemide ([1]; 40 minutes) | % Dissolved torasemide ([1]; 50 minutes) | % Dissolved torasemide ([1]; 60 minutes) | IDR (Intrinsic Dissolution Rate) [2] | dissolution profile (USP 23) in comparison to known crystal modifications I and II [3] | dissolution profile (USP 23) in comparison to known crystal modifications I and II ([1]; in water) | stability of the crystal modification (no transformation into modification I or II) ([4]; normal storage conditions) | stability of the crystal modification (no transformation into modification I or II) ([4]; subjected to increased humidity) | Compound
0% | 6.7% | 13.0% | 18.5% | 23.5% | 28.5% | 32.8% | – | – | – | – | – | Cc1cccc(Nc2ccncc2S(=O)(=O)NC(=O)NC(C)C)c1 [Mod. I, N-(1-methylethylaminocarbonyl)-4-(3-methyl-phenylamino)-3-pyridinesulfonamide]
0% | 15.1% | 27.8% | 39.2% | 48.8% | 56.3% | 65.1% | – | – | – | – | – | Cc1cccc(Nc2ccncc2S(=O)(=O)NC(=O)NC(C)C)c1 [Mod. II, N-(1-methylethylaminocarbonyl)-4-(3-methyl-phenylamino)-3-pyridinesulfonamide]
0% | 15.6% | 28.1% | 37.7% | 43.6% | 48.5% | 51.1% | exceeds 1 mg cm^−2min^−1 | significant difference | significant difference | stable | stable | Cc1cccc(Nc2ccncc2S(=O)(=O)NC(=O)NC(C)C)c1 [Mod. III, N-(1-methylethylaminocarbonyl)-4-(3-methyl-phenylamino)-3-pyridinesulfonamide]
